The test system of the test is beta-TC6 cells. Briefly: Insulin HTRF assay (relative activity Ar) in beta-TC6 cells. The class given is cell-based, mouse. To be noted: insulin HTRF, supernatant of beta-TC6 cells, incubation with test compound at 37°C for 2, 3, 4h; for Emax: Mus musculus, Beta-TC6, 4 h, read-out: Ar (relative activity). In a few lines: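 beta-TC6 cells (15k/well, seeded 24 or 48 h) washed, then exposed to compound in induction buffer (0.5% DMSO final) for 2, 3 or 4 h at 37°C.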

Where only a bound is given, the exact number is not on record here.

Regarding `CC(=O)c1cccc(-c2cc3c(cn2)nc(NCc2ccccc2F)n3C)c1` [Compound 747, 1-[3-[2-[(2-fluorophenyl)methylamino]-1-methyl-imidazo[4,5-c]pyridin-6-yl]phenyl]ethanone], the Emax was in the range of 0 to 30%. Regarding `COc1ccc(-c2cc3c(cn2)nc(NCc2cccc(C)c2)n3C)cc1` [Compound 807, 6-(4-methoxyphenyl)-1-methyl-N-(m-tolylmethyl)imidazo[4,5-c]pyridin-2-amine], the Emax lay within 30 to 50%. The same measure, in the same setting: under `CC(=O)N(C)c1cccc(-c2cc3cnc(Nc4cccc(N(C)C)c4)cc3n2C)c1` [Compound 165, N-[3-[6-[3-(dimethylamino)anilino]-1-methyl-pyrrolo[3,2-c]pyridin-2-yl]phenyl]-N-methyl-acetamide] stands over 100%; under `CNc1nc2cnc(Nc3cccc(NC(C)=O)c3)cc2n1-c1cccc(F)c1` [Compound 688, N-[3-[[1-(3-fluorophenyl)-2-(methylamino)imidazo[4,5-c]pyridin-6-yl]amino]phenyl]acetamide], 50 to 100%.

Consider `Cn1c(NCc2ccccc2)nc2cnc(-c3cccs3)cc21` [Compound 841, N-benzyl-1-methyl-6-(2-thienyl)imidazo[4,5-c]pyridin-2-amine], for which the Emax lay in the range of 30 to 50%. As to `CN(C)c1cccc(Nc2cc3[nH]c(-c4cn[nH]c4)cc3cn2)c1` [Compound 112, N1,N1-dimethyl-N3-[2-(1H-pyrazol-4-yl)-1H-pyrrolo[3,2-c]pyridin-6-yl]benzene-1,3-diamine], the Emax was in the range of 50 to 100%. As to `CN(C)C(=O)c1ccc(Nc2cc3[nH]c(-c4ccccc4)cc3cn2)cc1` [Compound 182, N,N-dimethyl-4-[(2-phenyl-1H-pyrrolo[3,2-c]pyridin-6-yl)amino]benzamide], the Emax was 50 to 100%. With `COc1cccc(Nc2cc3c(cn2)nc(-c2ccc(OC)c(OC)c2)n3C)c1` [Compound 718, 2-(3,4-dimethoxyphenyl)-N-(3-methoxyphenyl)-1-methyl-imidazo[4,5-c]pyridin-6-amine], the Emax is 50 to 100%.

Regarding `COc1cccc(Nc2nccc3[nH]c(-c4cccc(OC)c4)nc23)c1` [Compound 368, N,2-bis(3-methoxyphenyl)-1H-imidazo[4,5-c]pyridin-4-amine], the Emax lay within 30 to 50%.

`Cn1c(-c2ccccc2)nc2cnc(-c3ccc(N)nc3)cc21` [Compound 735, 5-(1-methyl-2-phenyl-imidazo[4,5-c]pyridin-6-yl)pyridin-2-amine]: the Emax was in the range of 30 to 50%.

As to `c1cncc(-c2cc3c(Nc4ccc5c(c4)OCCO5)nccc3[nH]2)c1` [Compound 232, N-(2,3-dihydro-1,4-benzodioxin-6-yl)-2-(3-pyridyl)-1H-pyrrolo[3,2-c]pyridin-4-amine], the Emax lay within 50 to 100%. Consider `COc1ccc(Nc2cc3c(cn2)ncn3C)c(OC)c1` [Compound 727, N-(2,4-dimethoxyphenyl)-1-methyl-imidazo[4,5-c]pyridin-6-amine], for which the Emax fell in the range of 50 to 100%. In the case of `COc1ccc(Nc2cc3[nH]c(-c4ccc(C(=O)N(C)C)cc4)cc3cn2)c(OC)c1` [Compound 20, 4-[6-(2,4-dimethoxyanilino)-1H-pyrrolo[3,2-c]pyridin-2-yl]-N,N-dimethyl-benzamide], the Emax is 50 to 100%. On to `Cn1c(NCc2ccccc2)nc2cnc(Nc3cccc(F)c3)cc21` [Compound 629, N2-benzyl-N6-(3-fluorophenyl)-1-methyl-imidazo[4,5-c]pyridine-2,6-diamine], for which the Emax was in the range of 30 to 50%. Still for that read-out and setting: under `Cn1c(NCC2CCCO2)nc2cnc(-c3cccs3)cc21` (stereo not shown) [Compound 852, 1-methyl-N-(tetrahydrofuran-2-ylmethyl)-6-(2-thienyl)imidazo[4,5-c]pyridin-2-amine] stands 30 to 50%; under `CS(=O)(=O)Nc1cccc(Nc2nccc3[nH]c(-c4ccccc4Cl)nc23)c1` [Compound 463, N-[3-[[2-(2-chlorophenyl)-1H-imidazo[4,5-c]pyridin-4-yl]amino]phenyl]methanesulfonamide], 30 to 50%; under `CC(=O)Nc1ccc(Nc2cc3c(cn2)nc(NCc2ccccc2)n3C)cc1` [Compound 617, N-[4-[[2-(benzylamino)-1-methyl-imidazo[4,5-c]pyridin-6-yl]amino]phenyl]acetamide], 50 to 100%. Take `COc1ccc(CNc2nc3cnc(Nc4cccc(S(C)(=O)=O)c4)cc3n2C)cc1OC` [Compound 608, N2-[(3,4-dimethoxyphenyl)methyl]-1-methyl-N6-(3-methylsulfonylphenyl)imidazo[4,5-c]pyridine-2,6-diamine]: the Emax lay within 30 to 50%. With `CC(=O)N(C)c1cccc(-c2cc3cnc(Nc4ccccn4)cc3n2C)c1` [Compound 167, N-methyl-N-[3-[1-methyl-6-(2-pyridylamino)pyrrolo[3,2-c]pyridin-2-yl]phenyl]acetamide], the Emax was in the range of 30 to 50%.

With `COc1ccc(-c2cc3c(cn2)nc(Nc2ccccc2)n3C)cc1` [Compound 847, 6-(4-methoxyphenyl)-1-methyl-N-phenyl-imidazo[4,5-c]pyridin-2-amine], the Emax was 30 to 50%. For `CC(=O)Nc1cccc(Nc2nccc3[nH]c(-c4ccsc4)cc23)c1` [Compound 266, N-[3-[[2-(3-thienyl)-1H-pyrrolo[3,2-c]pyridin-4-yl]amino]phenyl]acetamide], the Emax was 50 to 100%. Turning to `COc1ccc(Nc2nccc3c2cc(-c2cccc(F)c2)n3C)cc1OC` [Compound 208, N-(3,4-dimethoxyphenyl)-2-(3-fluorophenyl)-1-methyl-pyrrolo[3,2-c]pyridin-4-amine], the Emax is 30 to 50%. For the compound `CNc1nc2cnc(Nc3cccc(O)c3)cc2n1-c1cc(OC)c(OC)c(OC)c1` [Compound 491, 3-[[2-(methylamino)-1-(3,4,5-trimethoxyphenyl)imidazo[4,5-c]pyridin-6-yl]amino]phenol], the Emax lay in the range of 50 to 100%.

In the case of `CS(=O)(=O)c1ccc(Nc2cc3[nH]c(-c4ccccn4)cc3cn2)cc1` [Compound 72, N-(4-methylsulfonylphenyl)-2-(2-pyridyl)-1H-pyrrolo[3,2-c]pyridin-6-amine], the Emax is over 100%. `CNc1nc2cnc(-c3ccc(N(C)C)cc3)cc2n1Cc1ccccc1` [Compound 525, 1-benzyl-6-(4-dimethylaminophenyl)-N-methyl-imidazo[4,5-c]pyridin-2-amine]: the Emax fell in the range of 30 to 50%. Same read-out and setting: under `COc1cccc(-c2nc3c(NCC4CC4)nccc3[nH]2)c1` [Compound 376, N-(cyclopropylmethyl)-2-(3-methoxyphenyl)-1H-imidazo[4,5-c]pyridin-4-amine] stands 30 to 50%; under `CS(=O)(=O)c1ccc(Nc2cc3[nH]c(-c4cccc(F)c4)cc3cn2)cc1` [Compound 16, 2-(3-fluorophenyl)-N-(4-methylsulfonylphenyl)-1H-pyrrolo[3,2-c]pyridin-6-amine], 30 to 50%. In the case of `CNc1nc2cnc(-c3ccc(N(C)C)cc3)cc2n1-c1ccccc1` [Compound 781, 6-(4-dimethylaminophenyl)-N-methyl-1-phenyl-imidazo[4,5-c]pyridin-2-amine], the “Ar (relative activity)” value is reported as “+++ (50 % ≤ Ar < 100 %)”. `CNc1nc2cnc(-c3ccc(OC)cc3)cc2n1Cc1ccc(OC)c(OC)c1` [Compound 672, 1-[(3,4-dimethoxyphenyl)methyl]-6-(4-methoxyphenyl)-N-methyl-imidazo[4,5-c]pyridin-2-amine]: the Emax is 30 to 50%.

Turning to `FC(F)(F)c1cccc(-c2cc3c(Nc4cccnc4)nccc3[nH]2)c1` [Compound 196, N-(3-pyridyl)-2-[3-(trifluoromethyl)phenyl]-1H-pyrrolo[3,2-c]pyridin-4-amine], the Emax was in the range of 50 to 100%. With `CN1CCN(c2nccc3[nH]c(-c4cccc(OC(F)(F)F)c4)nc23)CC1` [Compound 442, 4-(4-methylpiperazin-1-yl)-2-[3-(trifluoromethoxy)phenyl]-1H-imidazo[4,5-c]pyridine], the Emax lay in the range of 30 to 50%.

As for `CNc1nc2cnc(Nc3cc(OC)c(OC)c(OC)c3)cc2n1C` [Compound 609, N2,1-dimethyl-N6-(3,4,5-trimethoxyphenyl)imidazo[4,5-c]pyridine-2,6-diamine], the Emax was in the range of 50 to 100%.

As to `Cn1c(Nc2cccc(C(F)(F)F)c2)nc2cnc(-c3ccc(N)nc3)cc21` [Compound 590, 6-(6-amino-3-pyridyl)-1-methyl-N-[3-(trifluoromethyl)phenyl]imidazo[4,5-c]pyridin-2-amine], the Emax is 50 to 100%. On the same count and under the same terms, under `Cn1c(NCC2CCCO2)nc2cnc(Nc3cccc(OC(F)(F)F)c3)cc21` (stereo not shown) [Compound 755, 1-methyl-N2-(tetrahydrofuran-2-ylmethyl)-N6-[3-(trifluoromethoxy)phenyl]imidazo[4,5-c]pyridine-2,6-diamine] stands 0 to 30%; under `COc1ccc(Nc2nccc3[nH]c(-c4ccncc4)nc23)cc1OC` [Compound 423, N-(3,4-dimethoxyphenyl)-2-(4-pyridyl)-1H-imidazo[4,5-c]pyridin-4-amine], over 100%; under `CNc1nc2cnc(-c3cccc(N(C)C)c3)cc2n1-c1ccccc1` [Compound 783, 6-[3-(dimethylamino)phenyl]-N-methyl-1-phenyl-imidazo[4,5-c]pyridin-2-amine], 0 to 30%. Same read-out and setting: under `CNc1nc2cnc(Nc3cccc(NC(C)=O)c3)cc2n1-c1ccccc1` [Compound 516, N-[3-[[2-(methylamino)-1-phenyl-imidazo[4,5-c]pyridin-6-yl]amino]phenyl]acetamide] stands 50 to 100%.

Turning to `COc1cccc(Nc2nccc3c2cc(-c2ccc(C(=O)N(C)C)cc2)n3C)c1` [Compound 212, 4-[4-(3-methoxyanilino)-1-methyl-pyrrolo[3,2-c]pyridin-2-yl]-N,N-dimethyl-benzamide], the Emax lay in the range of 30 to 50%. Turning to `CN(C)c1ccc(-c2cc3c(cn2)nc(Nc2ccccc2)n3C)cc1` [Compound 631, 6-(4-dimethylaminophenyl)-1-methyl-N-phenyl-imidazo[4,5-c]pyridin-2-amine], the Emax is over 100%. Take `CN(C)C(=O)c1ccc(-c2cc3cnc(Nc4ccccc4)cc3[nH]2)cc1` [Compound 24, 4-(6-anilino-1 H-pyrrolo[3,2-c]pyridin-2-yl)-N,N-dimethyl-benzamide]: the Emax was in the range of 50 to 100%.
